Assay results: ChEMBL document CHEMBL3885861, “Open TG-GATES”

Organism: Rattus norvegicus
Test: Open TG-GATES - Regimen: Single
Type: toxicity, organism-based, Sprague-Dawley
Parameters: regimen Single, gender Male, age 6 weeks
Conditions: in vivo, po, 0 mg/kg, route gavage, dose level Control; for KIDNEY_L / KIDNEY_R / KIDNEY_TOTAL: tissue Kidney; for LIVER: tissue Liver; for ALP / ALT / AST / BUN / CRE / Ca / DBIL / GLC / IP / K / LDH / Na / PL / RALB / TBIL / TC / TP / gamma-GTP / TG: tissue Plasma

O=C(O)c1cn(C2CC2)c2cc(N3CCNCC3)c(F)cc2c1=O [CIPROFLOXACIN]
TERMINAL_BW (3 h): 180.9 g | Bas (3 h, tissue Blood): 0% | Eos (3 h, tissue Blood): 0.6% | Fbg (3 h, tissue Blood): 202.2 mg/dL | Hb (3 h, tissue Blood): 13 g/dL | MCH (3 h, tissue Blood): 21.8 pg | MCV (3 h, tissue Blood): 65.5 fL | Mono (3 h, tissue Blood): 6% | PT (3 h, tissue Blood): 12.5 s | Plat (3 h, tissue Blood): 103.5 x10_4/uL | RBC (3 h, tissue Blood): 598.8 x10_4/ul | Ret (3 h, tissue Blood): 9.9% | WBC (3 h, tissue Blood): 128.2 x10_2/uL | KIDNEY_L (3 h): 0.8 g | KIDNEY_R (3 h): 0.9 g | KIDNEY_TOTAL (3 h): 1.7 g | LIVER (3 h): 8.3 g | ALP (3 h): 1050.6 IU/L | ALT (3 h): 38.4 IU/L | AST (3 h): 70.6 IU/L | BUN (3 h): 13.8 mg/dL | CRE (3 h): 0.4 mg/dL | Ca (3 h): 10.8 mg/dL | DBIL (3 h): 0.008 mg/dL | GLC (3 h): 186.6 mg/dL | IP (3 h): 9.5 mg/dL | K (3 h): 4.9 meq/L | LDH (3 h): 92.6 IU/L | Na (3 h): 138.2 meq/L | PL (3 h): 130.8 mg/dL | RALB (3 h): 3.8 g/dL | TBIL (3 h): 0.4 mg/dL | TC (3 h): 73.6 mg/dL | TP (3 h): 5.4 g/dL | gamma-GTP (3 h): 1.8 IU/L | TERMINAL_BW (6 h): 182.4 g | Bas (6 h, tissue Blood): 0% | Eos (6 h, tissue Blood): 0.6% | Fbg (6 h, tissue Blood): 211 mg/dL | Hb (6 h, tissue Blood): 12.6 g/dL | Lym (6 h, tissue Blood): 77% | MCH (6 h, tissue Blood): 21.8 pg | MCV (6 h, tissue Blood): 66.3 fL | Mono (6 h, tissue Blood): 6.8% | Neu (6 h, tissue Blood): 15.6% | PT (6 h, tissue Blood): 12.5 s | Plat (6 h, tissue Blood): 103 x10_4/uL | RBC (6 h, tissue Blood): 579 x10_4/ul | Ret (6 h, tissue Blood): 10.8% | WBC (6 h, tissue Blood): 125 x10_2/uL | KIDNEY_L (6 h): 0.9 g | KIDNEY_R (6 h): 0.9 g | KIDNEY_TOTAL (6 h): 1.8 g | LIVER (6 h): 8.5 g | ALP (6 h): 839.4 IU/L | ALT (6 h): 36.6 IU/L | BUN (6 h): 10.4 mg/dL | CRE (6 h): 0.5 mg/dL | DBIL (6 h): 0.024 mg/dL | GLC (6 h): 186.4 mg/dL | IP (6 h): 9.9 mg/dL | K (6 h): 5.1 meq/L | LDH (6 h): 103.2 IU/L | Na (6 h): 138.2 meq/L | PL (6 h): 136 mg/dL | RALB (6 h): 3.7 g/dL | TBIL (6 h): 0.4 mg/dL | TC (6 h): 80.6 mg/dL | TG (6 h): 42.2 mg/dL | TP (6 h): 5.5 g/dL | gamma-GTP (6 h): 1.4 IU/L | TERMINAL_BW (9 h): 177.8 g | APTT (9 h, tissue Blood): 17 s | Bas (9 h, tissue Blood): 0% | Eos (9 h, tissue Blood): 0.4% | Fbg (9 h, tissue Blood): 213.4 mg/dL | Hb (9 h, tissue Blood): 12.4 g/dL | Ht (9 h, tissue Blood): 37.5% | Lym (9 h, tissue Blood): 82.6% | MCH (9 h, tissue Blood): 21.7 pg | MCHC (9 h, tissue Blood): 33.1% | MCV (9 h, tissue Blood): 65.6 fL | Mono (9 h, tissue Blood): 6.8% | Neu (9 h, tissue Blood): 10% | PT (9 h, tissue Blood): 11.7 s | Plat (9 h, tissue Blood): 116.2 x10_4/uL | RBC (9 h, tissue Blood): 572.4 x10_4/ul | Ret (9 h, tissue Blood): 10.6% | WBC (9 h, tissue Blood): 115.5 x10_2/uL | KIDNEY_L (9 h): 0.8 g | KIDNEY_R (9 h): 0.8 g | KIDNEY_TOTAL (9 h): 1.7 g | LIVER (9 h): 7.5 g | ALP (9 h): 766 IU/L | ALT (9 h): 32.4 IU/L | AST (9 h): 68.4 IU/L | BUN (9 h): 10.6 mg/dL | CRE (9 h): 0.5 mg/dL | Ca (9 h): 10.9 mg/dL | DBIL (9 h): 0.056 mg/dL | GLC (9 h): 193 mg/dL | IP (9 h): 10.9 mg/dL | K (9 h): 4.9 meq/L | LDH (9 h): 92.4 IU/L | Na (9 h): 139.2 meq/L | PL (9 h): 120.4 mg/dL | RALB (9 h): 3.8 g/dL | TBIL (9 h): 0.3 mg/dL | TC (9 h): 71.8 mg/dL | TG (9 h): 29 mg/dL | TP (9 h): 5.5 g/dL | gamma-GTP (9 h): 1.4 IU/L | TERMINAL_BW (24 h): 194.5 g | APTT (24 h, tissue Blood): 16.4 s | Bas (24 h, tissue Blood): 0% | Eos (24 h, tissue Blood): 1% | Fbg (24 h, tissue Blood): 209.2 mg/dL | Hb (24 h, tissue Blood): 13.1 g/dL | Lym (24 h, tissue Blood): 80% | MCH (24 h, tissue Blood): 22 pg | MCHC (24 h, tissue Blood): 33.4% | MCV (24 h, tissue Blood): 65.8 fL | Mono (24 h, tissue Blood): 7.2% | Plat (24 h, tissue Blood): 103.8 x10_4/uL | RBC (24 h, tissue Blood): 598.2 x10_4/ul | Ret (24 h, tissue Blood): 9.7% | WBC (24 h, tissue Blood): 132.8 x10_2/uL | KIDNEY_L (24 h): 0.9 g | KIDNEY_R (24 h): 0.9 g | KIDNEY_TOTAL (24 h): 1.8 g | LIVER (24 h): 9.8 g | ALP (24 h): 1038.8 IU/L | ALT (24 h): 47 IU/L | AST (24 h): 74.8 IU/L | BUN (24 h): 17.4 mg/dL | CRE (24 h): 0.5 mg/dL | Ca (24 h): 11.3 mg/dL | DBIL (24 h): 0.074 mg/dL | GLC (24 h): 187.2 mg/dL | IP (24 h): 8.3 mg/dL | K (24 h): 4.7 meq/L | LDH (24 h): 96.8 IU/L | Na (24 h): 138.8 meq/L | PL (24 h): 157.2 mg/dL | RALB (24 h): 4 g/dL | TBIL (24 h): 0.3 mg/dL | TC (24 h): 89 mg/dL | TG (24 h): 89.4 mg/dL | TP (24 h): 5.7 g/dL | gamma-GTP (24 h): 1.2 IU/L
